How the values were obtained:
human GST-CLK1 (129-end) = target: T1, human GST-CLK1 (129-end) (Homo sapiens, UniProt P49759); test: GST-CLK1 enzyme inhibition, ADP-Glo kinase assay; type: biochemical; settings: ATP 10 uM
T1 construct: purified human GST-CLK1 (129-end, Signalchem) enzyme; GST; purchased Signalchem
Experimental: (§1) In order to evaluate the inhibitory activity of the compounds according to the present invention on LRRK2, LRRK2 (G2019S), DYRK1, CLK1 and TTK kinases, the following experiment was performed.
(§2) Example compounds were reacted with the purified human GST-CLK1 (129-end, Signalchem) enzyme to evaluate the enzyme inhibitory ability as follows. As the reaction buffer, the composition of 40 mM Tris-HCl pH 7.4, 20 mM MgCl2, 0.5 mg/mL BSA, and 50 uM DTT was used, and the reaction of all test materials was performed on the reaction buffer. During the test, the human GST-CLK1 (129-end, 3 ng) enzyme, the purified ATP (10 uM), and a specific substrate solution were reacted at 25° C. for 1 hour, and then the enzyme activity was identified using the in vitro ADP-Glo™ kinase assay (promega). Luminescence was measured by reacting the enzyme activity reaction solution, an ADP-Glo reaction solution and the enzyme potency detection solution in a ratio of 2:2:1. The degree of inhibition of enzyme activity according to the treatment concentrations of the respective compounds was calculated based on the fluorescence of the enzyme activity of a solvent control group that was not treated with the compound, where the concentration of each compound to inhibit enzyme activity inhibition by 50% was determined as an IC50 (nM) value. The IC50 of each compound was determined in triplicate data sets and obtained using Prism (version 7.01, GraphPad) software.
(§3) In the table below, the following designations were used for the evaluation of enzyme inhibitory ability.

[1] = target: T2, human GST-DYRK1A (full length) (Homo sapiens, UniProt Q13627); test: GST-DYRK1A enzyme inhibition, ADP-Glo kinase assay; type: biochemical; settings: read-out: DYRK1 IC50
T2 construct: purified human GST-DYRK1A (full length, Thermo scientifics) enzyme; GST; purchased Thermo scientifics
Experimental: as §1
as §2, with “GST-DYRK1A (full length, Thermo scientifics)” for “GST-CLK1 (129-end, Signalchem)”, “GST-DYRK1A (full length, 10” for “GST-CLK1 (129-end, 3”
as §3

T1 sequence (P49759 129-484 limits assumed): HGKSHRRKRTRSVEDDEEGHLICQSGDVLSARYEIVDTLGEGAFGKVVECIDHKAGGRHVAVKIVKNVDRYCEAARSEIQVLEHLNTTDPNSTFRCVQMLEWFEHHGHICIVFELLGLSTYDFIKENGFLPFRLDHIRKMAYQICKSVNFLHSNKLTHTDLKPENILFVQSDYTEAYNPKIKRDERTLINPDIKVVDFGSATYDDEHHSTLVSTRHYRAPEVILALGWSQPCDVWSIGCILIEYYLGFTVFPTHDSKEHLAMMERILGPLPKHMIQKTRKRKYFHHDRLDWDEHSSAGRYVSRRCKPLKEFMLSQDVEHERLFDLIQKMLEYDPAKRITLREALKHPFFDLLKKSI

Row | IC50 (human GST-CLK1 (129-end)) | IC50 [1] | SMILES
1 | < 100 nM | 301 to 1000 nM | CCCCNc1cc(Nc2ccc(C(=O)N3CCC(N4CCOCC4)CC3)c3c2OCCO3)nc2[nH]cc(C(F)(F)F)c12 [Example 170, (8-((4-(butylamino)-3-(trifluoromethyl)-1H-pyrrolo[2,3-b]pyridin-6-yl)amino)-2,3-dihydrobenzo[b] [1,4]dioxin-5-yl)(4-morpholinopiperidin-1-yl)methanone]
2 | 301 to 1000 nM | 301 to 1000 nM | N#Cc1c[nH]c2nc(Nc3ccc(C(=O)N4CCOCC4)c4c3OCCO4)cc(NC3CCC3)c12 [Example 36, 4-(cyclobutylamino)-6-((8-(morpholine-4-carbonyl)-2,3-dihydrobenzo[b] [1,4]dioxin-5-yl)amino)-1H-pyrrolo[2,3-b]pyridine-3-carbonitrile]
3 | 101 to 300 nM | 301 to 1000 nM | O=C(c1ccc(Nc2cc(NC3CCC3)c3c(C(F)(F)F)c[nH]c3n2)c2c1OCCO2)N1CCOCC1 [Example 175, (8-((4-(cyclobutylamino)-3-(trifluoromethyl)-1H-pyrrolo[2,3-b]pyridin-6-yl)amino)-2,3-dihydrobenzo[b] [1,4]dioxin-5-yl)(morpholino) methanone 2,2,2-trifluoroacetate]
4 | 301 to 1000 nM | 301 to 1000 nM | COCCNc1cc(Nc2ccc(S(=O)(=O)N3CCC(N4CCOCC4)CC3)cc2OC)nc2[nH]cc(Cl)c12 [Example 78, 3-chloro-N^6-(2-methoxy-4-((morpholinopiperidin-1-yl)sulfonyl)phenyl)-N^4-(2-methoxyethyl)-1H-pyrrolo[2,3-b]pyridine-4,6-diamine]
5 | 101 to 300 nM | 101 to 300 nM | CCNc1cc(Nc2ccc(C(=O)N3CCN(C4COC4)CC3)c3c2OCCO3)nc2[nH]cc(C#N)c12 [Example 35, 4-(ethylamino)-6-((8-(4-(oxetan-3-yl)piperazine-1-carbonyl)-2,3-dihydrobenzo[b] [1,4]dioxin-5-yl)amino)-1H-pyrrolo[2,3-b]pyridine-3-carbonitrile]
6 | < 100 nM | 301 to 1000 nM | CC(C)Nc1cc(Nc2ccc(C(=O)N3CCOCC3)c3c2OCCO3)nc2[nH]cc(C(F)(F)F)c12 [Example 168, (8-((4-(isopropylamino)-3-(trifluoromethyl)-1H-pyrrolo[2,3-b]pyridin-6-yl)amino)-2,3-dihydrobenzo [b] [1,4]dioxin-5-yl)(morpholino) methanone]
7 | 301 to 1000 nM | 301 to 1000 nM | COc1cc(P(C)(C)=O)ccc1Nc1cc(C2CC2)c2c(C#N)c[nH]c2n1 [Example 230, 4-cyclopropyl-6-((4-(dimethylphosphoryl)-2-methoxyphenyl)amino)-1H-pyrrolo[2,3-b]pyridine-3-carbonitrile]
8 | 301 to 1000 nM | 301 to 1000 nM | COCCNc1cc(Nc2ccc(S(=O)(=O)N3CCOCC3)cc2OC)nc2[nH]cc(Cl)c12 [Example 71, 3-chloro-N^6-(2-methoxy-4-(morpholinosulfonyl)phenyl)-N^4-(2-methoxyethyl)-1H-pyrrolo[2,3-b]pyridine-4,6-diamine]
9 | 301 to 1000 nM | 301 to 1000 nM | COc1cc(S(C)(=O)=O)ccc1Nc1cc(NC2CCCCC2)c2c(Cl)c[nH]c2n1 [Example 86, 3-chloro-N^4-cyclohexyl-N^6-(2-methoxy-4-(methylsulfonyl)phenyl)-1H-pyrrolo[2,3-b]pyridine-4,6-diamine]
10 | 301 to 1000 nM | 301 to 1000 nM | COc1cc(S(=O)(=O)N2CCC(N3CCOCC3)CC2)ccc1Nc1cc(NC2CCCCC2)c2c(Cl)c[nH]c2n1 [Example 77, 3-chloro-N^4-cyclohexyl-N^6-(2-methoxy-4-((morpholinopiperidin-1-yl)sulfonyl)phenyl)-1H-pyrrolo[2,3-b]pyridine-4,6-diamine]
11 | 301 to 1000 nM | 301 to 1000 nM | O=C(c1ccc(Nc2cc(NC3CCCCC3)c3c(Cl)c[nH]c3n2)c2c1OCCO2)N1CCOCC1 [Example 61, (8-((3-chloro-4-(cyclohexylamino)-1H-pyrrolo[2,3-b]pyridin-6-yl)amino)-2,3-dihydrobenzo[b] [1,4]dioxin-5-yl)(morpholino) methanone]
12 | 101 to 300 nM | 301 to 1000 nM | CCNc1cc(Nc2ccc(C(=O)N3CCOCC3)c3c2OCO3)nc2[nH]cc(C#N)c12 [Example 33]
13 | < 100 nM | < 100 nM | CCOCCNc1cc(Nc2ccc(C(=O)N3CCC(N4CCOCC4)CC3)c3c2OCCO3)nc2[nH]cc(C(F)(F)F)c12 [Example 167, (8-((4-((2-ethoxyethyl)amino)-3-(trifluoromethyl)-1H-pyrrolo[2,3-b]pyridin-6-yl)amino)-2,3-dihydrobenzo[b] [1,4]dioxin-5-yl)(4-morpholinopiperidin-1-yl)methanone]
14 | < 100 nM | < 100 nM | O=C(c1ccc(Nc2cc(NC3CCC3)c3c(C(F)(F)F)c[nH]c3n2)c2c1OCCO2)N1CCC(N2CCOCC2)CC1 [Example 176, (8-((4-(cyclobutylamino)-3-(trifluoromethyl)-1H-pyrrolo[2,3-b]pyridin-6-yl)amino)-2,3-dihydrobenzo[b] [1,4]dioxin-5-yl)(4-morpholinopiperidin-1-yl)methanone]
15 | < 100 nM | < 100 nM | CCNc1cc(Nc2ccc(C(=O)N3CCC(N4CCOCC4)CC3)c3c2OCO3)nc2[nH]cc(C#N)c12 [Example 34, 4-(ethylamino)-6-((7-(4-morpholinopiperidine-1-carbonyl)benzo[d] [1,3]dioxol-4-yl)amino)-1H-pyrrolo[2,3-b]pyridine-3-carbonitrile]
16 | 301 to 1000 nM | 101 to 300 nM | CCOCCNc1cc(Nc2ccc(C(=O)N3CCOCC3)c3c2OCCO3)nc2[nH]cc(C(F)(F)F)c12 [Example 166, (8-((4-((2-ethoxyethyl)amino)-3-(trifluoromethyl)-1H-pyrrolo[2,3-b]pyridin-6-yl)amino)-2,3-dihydrobenzo[b] [1,4]dioxin-5-yl)(morpholino) methanone]
17 | 301 to 1000 nM | 301 to 1000 nM | CCCCNc1cc(Nc2ccc(C(=O)N3CCOCC3)c3c2OCCO3)nc2[nH]cc(C(F)(F)F)c12 [Example 169, (8-((4-(butylamino)-3-(trifluoromethyl)-1H-pyrrolo[2,3-b]pyridin-6-yl)amino)-2,3-dihydrobenzo [b] [1,4]dioxin-5-yl)(morpholino) methanone]
18 | < 100 nM | < 100 nM | COc1cc(S(=O)(=O)N2CCC(N3CCOCC3)CC2)ccc1Nc1cc(NCCS(C)(=O)=O)c2c(Cl)c[nH]c2n1 [Example 79, 3-chloro-N^6-(2-methoxy-4-((morpholinopiperidin-1-yl)sulfonyl)phenyl)-N^4-(2-(methylsulfonyl)ethyl)-1H-pyrrolo[2,3-b]pyridine-4,6-diamine]
19 | 301 to 1000 nM | 301 to 1000 nM | COCCNc1cc(Nc2ccc(S(C)(=O)=O)cc2OC)nc2[nH]cc(Cl)c12 [Example 87, 3-chloro-N^6-(2-methoxy-4-(methylsulfonyl)phenyl)-N^4-(2-methoxyethyl)-1H-pyrrolo[2,3-b]pyridine-4,6-diamine]

— patent publication US12240844B2 (Voronoi, Inc., priority 2019, dated 2025)
